Test results as given in patent publication US20260183242A1, “FORMULATIONS COMPRISING A COMBINATION OF ACID-NEUTRALIZING POLYMERIC AND NON-POLYMERIC SUBSTANCES FOR ORAL ADMINISTRATION OF ACTIVE AGENTS” (Entera Bio Ltd., priority 2023, published 2026).
Where two headings read alike, the source gives them in different places.

Tests used:
[1] = cited from earlier work
[2] = pH upon addition of test substance to 0.1 M HCl solution (pH 1.2), pH meter; type: physicochemical
Procedure: The solution pH was determined using an MP-103 pH-meter (MRC, Israel) equipped with ELC-10-00 electrode (MRC, Israel) or with a thin electrode HI1083 (HANNA instruments Inc.), shortly after dissolution and up to 26 hours later in order to ensure that the pH remained stable. The highest pH value obtained during the experimental time period was recorded in order to compare the acid-neutralizing capacity of each substance.
SNAC and the basic polymers sodium alginate, sodium carboxymethylcellulose in non-crosslinked (Na-CMC) and crosslinked (croscarmellose sodium, CCS) forms, and sodium starch glycolate (SSG) were dissolved in various volumes of 0.1 M HCl solution (pH 1.2) at concentrations of 1, 2, 4, 10, 20, 50, 100 and 150 mg/ml, and the solution pH was determined using an MP-103 pH-meter (MRC, Israel) equipped with ELC-10-00 electrode (MRC, Israel), as described in the Materials and Methods section hereinabove.
In order to obtain a beneficial rise in pH with a reduced loss of the active form of the absorption enhancer, the effect of various concentrations of different polymers containing carboxylate groups (sodium alginate, sodium starch glycolate, sodium carboxymethylcellulose, and croscarmellose sodium) on pH upon addition to a 0.1 M HCl solution (pH 1.2) was also evaluated. FIG. 3A presents pH values determined using an MP-103 pH-meter (MRC, Israel) equipped with ELC-10-00 electrode (MRC, Israel) and FIG. 3B presents pH values determined using an MP-103 pH-meter (MRC, Israel) equipped with a thin electrode HI1083 (HANNA instruments Inc.).

pepsin = experiment: Proteolysis of hPTH (1-34) by pepsin at various pH values; type: in vitro ADME; conditions: 150 μg/ml pepsin, 37° C., 3 minutes; media pH 2-7
Procedure: The effect of pH on peptide proteolysis by pepsin was determined by incubating 13.5 μg/ml human parathyroid hormone (1-34) (hPTH (1-34)) with 150 μg/ml pepsin, at various pH values, and determining the percentage of hPTH (1-34) which remained. The amount of hPTH (1-34) remaining upon addition to 150 μg/ml pepsin at 37° C. was determined in media with different pH values, followed by immediate (10 second) vortex and centrifugation for 3 minutes at 4° C., 4000 RCF. The following media were used: simulated gastric fluid (pH 2), prepared from 0.01 M HCl and NaCl; phthalate buffer (pH 4 or 5); and phosphate buffer (pH 6 or 7).

[3] = In vivo pig model: absorption of active agent from SNAC/SSG tablets with or without small proton-accepting agent; set-up: species or system mini-pigs; conditions: both sexes, minipig; for Cmax: mini-pigs, preliminary data
Procedure: The effect of combination of SNAC, sodium starch glycolate (SSG) as an exemplary alkaline polymer and a small molecule proton-accepting agent (Sodium carbonate, arginine and/or Sodium Decanoate (C10)) on absorption of a therapeutically active agent was assessed in an in vivo pig model, which allows testing of orally administered unit dosage forms with conventional dimensions that are applicable also in humans. The following proteinaceous therapeutically active agents were tested: lixisenatide, octreotide, desmopressin, salmon calcitonin, PTH (1-34), leuprolide.
All formulation constituents were in a dry powder form and mixed geometrically using mortar and pestle. Thereafter, round flat tablets were prepared from the mixes using a punch and dye and dental manual press.
The obtained tablets were administered at monitored conditions with the aid of endoscope into the stomachs of 2 male and 2 female mini-pigs (about 45 kg) for each tested group on different visits. Pigs were deprived of food the night before the experiments and during the experiment and deprived of water an hour before the experiment and during the experiment.
Blood samples were taken from the jugular vein through an indwelling cannula at predetermined time points during the first hour post-dose (which reflects the absorption phase). Plasma was separated and the concentration of the tested model molecules in plasma was quantified using a suitable technique.
hPTH (1-34) was quantified using a commercially available Elisa kit for the determination of hPTH (1-34) in plasma or cell culture media (Quidel Corp. Athens, OH, USA; Cat #60-3900).
Octreotide was quantified using a commercially available Elisa kit for the determination of octreotide in plasma or cell culture media (BMA Biomedicals, Augst, Switzerland. Cat #S-1341).
Formulations containing the same therapeutically active agents were also formulated with 11% SSG and typically included about 0.3-0.5% by weight of the active agent, 85-90% by weight SNAC, and magnesium stearate as a lubricant (about 1% by weight), and the total weight of the tablet was 90-95 mg.

[4] = drug alone, without absorption enhancer; cited from earlier work

CCNC(=O)[C@@H]1CCCN1C(=O)[C@H](CCCNC(=N)N)NC(=O)[C@H](CC(C)C)NC(=O)[C@@H](CC(C)C)NC(=O)[C@H](Cc1ccc(O)cc1)NC(=O)[C@H](CO)NC(=O)[C@H](Cc1c[nH]c2ccccc12)NC(=O)[C@H](Cc1c[nH]cn1)NC(=O)[C@@H]1CCC(=O)N1 [Leuprolide, leuprolide]
T1/2 (IV half-life) ([1]; in vivo, iv): about 3 hours

O=C(O)CCCCCCCNC(=O)c1ccccc1O [SNAC, sodium 8-N-(2-hydroxybenzoyl)aminocaprylate]
pH 5 minutes after dissolution ([2]; 10 mg/ml SNAC added to HCl solution (pH 1.2)): about 1.5
pH 5 minutes after dissolution ([2]; 20 mg/ml SNAC added to HCl solution (pH 1.2)): 6.5
pH 5 minutes after dissolution ([2]; 100 mg/ml SNAC added to HCl solution (pH 1.2)): about 7.5

NC(=O)CC[C@@H]1NC(=O)[C@H](Cc2ccccc2)NC(=O)[C@H](Cc2ccc(O)cc2)NC(=O)CCSSC[C@@H](C(=O)N2CCC[C@H]2C(=O)N[C@H](CCCN=C(N)N)C(=O)NCC(N)=O)NC(=O)[C@H](CC(N)=O)NC1=O [desmopressin]
T1/2 (IV half-life) ([1]; in vivo, iv): 3 to 5 h

CC[C@H](C)[C@H](NC(=O)[C@H](CCC(=O)O)NC(=O)[C@H](CO)NC(=O)[C@@H](NC(=O)[C@@H](N)CO)C(C)C)C(=O)N[C@@H](CCC(N)=O)C(=O)N[C@@H](CC(C)C)C(=O)N[C@@H](CCSC)C(=O)N[C@@H](Cc1cnc[nH]1)C(=O)N[C@@H](CC(N)=O)C(=O)N[C@@H](CC(C)C)C(=O)NCC(=O)N[C@@H](CCCCN)C(=O)N[C@@H](Cc1cnc[nH]1)C(=O)N[C@@H](CC(C)C)C(=O)N[C@@H](CC(N)=O)C(=O)N[C@@H](CO)C(=O)N[C@@H](CCSC)C(=O)N[C@@H](CCC(=O)O)C(=O)N[C@@H](CCCN=C(N)N)C(=O)N[C@H](C(=O)N[C@@H](CCC(=O)O)C(=O)N[C@@H](Cc1c[nH]c2ccccc12)C(=O)N[C@@H](CC(C)C)C(=O)N[C@@H](CCCN=C(N)N)C(=O)N[C@@H](CCCCN)C(=O)N[C@@H](CCCCN)C(=O)N[C@@H](CC(C)C)C(=O)N[C@@H](CCC(N)=O)C(=O)N[C@@H](CC(=O)O)C(=O)N[C@H](C(=O)N[C@@H](Cc1cnc[nH]1)C(=O)N[C@@H](CC(N)=O)C(=O)N[C@@H](Cc1ccccc1)C(=O)O)C(C)C)C(C)C [hPTH (1-34), teriparatide]
pH at which proteolysis by pepsin was inhibited (pepsin): ≥ 6
T1/2 (IV half-life) ([1]; intravenous): about 5 minutes
AUC(0-t) ([3]; AUClast): 0.164 ng·h/mL
AUC(0-t) ([3]; mean AUClast): 0.0978 ng·h/mL

C[C@@H](O)[C@@H]1NC(=O)[C@H](CCCCN)NC(=O)[C@@H](Cc2c[nH]c3ccccc23)NC(=O)[C@H](Cc2ccccc2)NC(=O)[C@@H](NC(=O)[C@H](N)Cc2ccccc2)CSSC[C@@H](C(=O)N[C@H](CO)[C@@H](C)O)NC1=O [octreotide]
T1/2 (IV half-life) ([1]; intravenous): about 1.5 hours
Cmax ([3]; octreotide 0.3-0.5%, SNAC 85-90%, about 11% SSG, magnesium stearate, no PAA, read-out: mean Cmax): 2.09 ng/mL
Cmax ([3]; octreotide, SSG 11% by weight formulation further including sodium decanoate (C10), read-out: Cmax): 2.94 ng/mL

CC[C@H](C)[C@H](NC(=O)[C@H](Cc1ccccc1)NC(=O)[C@H](CC(=O)O)NC(=O)[C@H](CCCNC(=N)N)NC(=O)[C@H](C)NC(=O)[C@H](C)NC(=O)[C@H](CC(C)C)NC(=O)[C@H](CC(N)=O)NC(=O)[C@H](CC(=O)O)NC(=O)[C@H](CC(C)C)NC(=O)[C@@H](NC(=O)[C@@H](NC(=O)[C@H](CC(N)=O)NC(=O)[C@H](CCSC)NC(=O)[C@H](CCC(=O)O)NC(=O)[C@H](CC(=O)O)NC(=O)[C@H](CO)NC(=O)[C@H](Cc1ccccc1)NC(=O)[C@H](CO)NC(=O)CNC(=O)[C@H](CC(=O)O)NC(=O)CNC(=O)[C@@H](N)Cc1c[nH]cn1)[C@@H](C)O)[C@@H](C)CC)C(=O)N[C@@H](CC(N)=O)C(=O)N[C@@H](Cc1c[nH]c2ccccc12)C(=O)N[C@@H](CC(C)C)C(=O)N[C@H](C(=O)N[C@@H](CCC(N)=O)C(=O)N[C@H](C(=O)N[C@@H](CCCCN)C(=O)N[C@H](C(=O)N[C@H](C(=O)N[C@@H](CC(=O)O)C(=O)O)[C@@H](C)O)[C@@H](C)CC)[C@@H](C)O)[C@@H](C)CC [teduglutide]
oral (PO) bioavailability [4]: negligible

lixisenatide
T1/2 (IV half-life) ([1]; in vivo, iv): about 3 hours

salmon calcitonin
T1/2 (IV half-life) ([1]; in vivo, iv): 1 to 1.5 h
